Source: patent US5834487A, “Inhibition of 26S and 20S proteasome by indanones” (CV Therapeutics, priority 1996, dated 1998)

Target: T1, 20S catalytic subunit of the proteasome (multicatalytic proteinase complex) (Bos taurus, UniProt Q32KL2)
T1 construct: was purified to homogeneity from bovine brain according to published methods; from tissue; host or cells: bovine brain
Assay: 20S proteasome chymotryptic activity, fluorogenic peptide cleavage
Format: biochemical, bovine
Details: 50 μM succinyl-leu-leu-val-tyr-7-amino-4-methyl coumarin, 15 minutes at 37° C, pH7.5
Procedure: Compounds of this invention prepared according to the method of Example 1 were tested as follows. The 20S catalytic subunit of the proteasome (also known as the multicatalytic proteinase complex) was purified to homogeneity from bovine brain according to published methods (Wilk S. and Orlowski, M, 40 842 J. Neurochem (1983)). The chymotryptic activity of the complex is measured by the increase in fluorescence following cleavage of the substrate peptide succinyl-leucine-leucine-valine-tyrosine-7-amino-4-methyl coumarin. The standard in vitro assay consists of 2 μg 20S proteasome, 0.1-100 μg/ml proteasome inhibitor in 200 μl 50 mM HEPES, containing 0.1% sodium dodecyl sulphate, pH7.5. The proteolytic reaction is initiated by the addition of 50 μM fluorogenic peptide substrate and allowed to progress for 15 minutes at 37° C. The reaction is terminated by the addition of 100 μl of 100 mM acetate buffer, pH4.0. The rate of proteolysis is directly proportional to the amount of liberated aminomethylcoumarin which is measured by fluorescent spectroscopy (EX 370 nm, EM 430 nm).

IC50 [µg/mL]	SMILES
> 10	COc1ccc2c(c1)C(CC(=O)NCCCc1ccccc1)CC2=O (stereo not drawn) [Compound 66]
> 10	COc1ccc2c(c1)C(CC(=O)NC(CC(C)C)C(=O)NC(CC(=O)O)C(N)=O)CC2=O (mixture of isomers) [Compound 130]
> 10	COc1ccc2c(c1)C(CC(=O)N1CCc3ccccc31)CC2=O (racemic) [Compound 160]
> 10	COc1ccc2c(c1)C(CC(=O)NC(C)(C)CO)CC2=O (stereo not drawn) [Compound 113]
> 10	COc1ccc2c(c1)C(CC(=O)NC(CC(C)C)C(=O)NC(Cc1c[nH]c3ccccc13)C(N)=O)CC2=O (mixture of isomers) [Compound 136]
> 10	COc1ccc2c(c1)C(CC(=O)NC(Cc1c[nH]cn1)C(=O)NC(CC(C)C)C(N)=O)CC2=O (mixture of isomers) [Compound 99]
> 10	COc1ccc2c(c1)C(CC(=O)NC(CC(C)C)C(=O)NC(CC(C)C)C(=O)N(C)Cc1ccccc1)CC2=O (mixture of isomers) [Compound 179]
> 10	COc1ccc2c(c1)C(CC(=O)NC(C(=O)NC(CC(C)C)C(N)=O)c1ccccc1)CC2=O (mixture of isomers) [Compound 37]
> 10	COc1ccc2c(c1)C(CC(=O)NC(CC(C)C)C(=O)NC(CC(C)C)C(=O)NC(Cc1ccccc1)C(N)=O)CC2=O (mixture of isomers) [Compound 127]
> 10	COc1ccc2c(c1)C(CC(=O)N[C@@H](CC(C)C)C(=O)N[C@H](Cc1ccccc1)C(=O)NCC(N)=O)CC2=O (stereo partly drawn) [Compound 88]
> 10	COc1ccc2c(c1)C(CC(=O)NC(CC(C)C)C(=O)NC(CC(C)C)C(=O)N(C)Cc1ccccc1)CC2=O (mixture of isomers) [Compound 180]
> 10	COc1ccc2c(c1)C(CC(=O)NC(Cc1ccccc1)C(N)=O)CC2=O (mixture of isomers) [Compound 12]
> 10	COCCCNC(=O)CC1CC(=O)c2ccc(OC)cc21 (stereo not drawn) [Compound 71]
> 10	CCCC(NC(=O)C(CC(C)C)NC(=O)CC1CC(=O)c2ccc(OC)cc21)C(N)=O (mixture of isomers) [Compound 139]
> 10	COc1ccc2c(c1)C(CC(=O)NC(CC(C)C)C(=O)NC(CC(C)C)C(=O)NC(C(N)=O)C(C)C)CC2=O (mixture of isomers) [Compound 123]
> 10	COc1ccc2c(c1)C(CC(=O)NC(CC(C)C)C(=O)NC(CC(C)C)C(=O)NC(C)C(N)=O)CC2=O (mixture of isomers) [Compound 125]
> 10	COc1ccc2c(c1)C(CC(=O)NC(CC(C)C)C(=O)NC(CC(C)C)C(=O)NC(C(N)=O)C(C)C)CC2=O (mixture of isomers) [Compound 124]
> 10	CCCC(NC(=O)CC1CC(=O)c2ccc(OC)cc21)C(=O)NC(CC(C)C)C(N)=O (mixture of isomers) [Compound 57]
10	COc1ccc2c(c1)C(CC(=O)NC(CC(N)=O)C(=O)NC(CC(C)C)C(N)=O)CC2=O (mixture of isomers) [Compound 95]
> 10	COc1ccc2c(c1)C(CC(=O)NC(CC(C)C)C(=O)NC(CCCNC(=N)N)C(N)=O)CC2=O (mixture of isomers) [Compound 129]
> 10	COc1ccc2c(c1)C(CC(=O)NC(CC(C)C)C(=O)NC(CC(C)C)C(N)=O)CC2=O (mixture of isomers) [Compound 5]
> 10	COc1ccc2c(c1)C(CC(=O)NC(Cc1ccccc1)C(=O)NC(CC(C)C)C(=O)NCC(N)=O)CC2=O (mixture of isomers) [Compound 45]

IC50 [µg/mL]	SMILES
> 10	COc1ccc2c(c1)C(CC(=O)NC(CC(C)C)C(=O)NC(CC(C)C)C(=O)Nc1ccccc1)CC2=O (mixture of isomers) [Compound 184]
> 10	CCCCC(NC(=O)CC1CC(=O)c2ccc(OC)cc21)C(=O)NC(CC(C)C)C(N)=O (mixture of isomers) [Compound 15]
> 10	COc1ccc2c(c1)C(CC(=O)NC(CC(C)C)C(=O)NC(CC(C)C)C(=O)O)CC2=O (mixture of isomers) [Compound 171]
> 10	COc1ccc2c(c1)C(CC(=O)NC(CC(=O)O)C(=O)NC(CC(C)C)C(N)=O)CC2=O (mixture of isomers) [Compound 94]
> 10	CCCCC(NC(=O)CC1CC(=O)c2ccc(OC)cc21)C(=O)NC(CC(C)C)C(=O)NCC(N)=O (mixture of isomers) [Compound 43]
> 10	COc1ccc2c(c1)C(CC(=O)NCCc1ccc(OC)c(OC)c1)CC2=O (stereo not drawn) [Compound 72]
> 10	COc1ccc2c(c1)C(CC(=O)N1CCCC1C(N)=O)CC2=O (mixture of isomers) [Compound 55]
> 10	COc1ccc2c(c1)C(CC(=O)NC(CC(C)C)C(=O)NC(CC(C)C)C(=O)NCC(N)=O)CC2=O (mixture of isomers) [Compound 19]
> 10	COc1ccc2c(c1)C(CC(=O)Nc1ccnc(S)n1)CC2=O (racemic) [Compound 158]
> 10	COc1ccc2c(c1)C(CC(=O)NCc1ccccc1)CC2=O (stereo not drawn) [Compound 38]
> 10	COc1ccc2c(c1)C(CC(=O)NC(CC(C)C)C(=O)NC(CC1CCCCC1)C(N)=O)CC2=O (mixture of isomers) [Compound 132]
> 10	COc1ccc2c(c1)C(CC(=O)NCCCCCCN)CC2=O (stereo not drawn) [Compound 150]
> 10	COc1ccc2c(c1)C(CC(=O)NC(CC(C)C)C(=O)NC(C(N)=O)C(C)C)CC2=O (mixture of isomers) [Compound 33]
> 10	COc1ccc2c(c1)C(CC(=O)NC(C(=O)NC(CC(C)C)C(=O)NCC(N)=O)C(C)C)CC2=O (mixture of isomers) [Compound 47]
> 10	COc1ccc2c(c1)C(CC(=O)NC(CC(C)C)C(=O)NC(C)C(N)=O)CC2=O (mixture of isomers) [Compound 53]
> 10	CCCCCCCNC(=O)CC1CC(=O)c2ccc(OC)cc21 (stereo not drawn) [Compound 70]
> 10	COc1ccc2c(c1)C(CC(=O)N1Cc3ccccc3CC1C(N)=O)CC2=O (mixture of isomers) [Compound 25]
> 10	COc1ccc2c(c1)C(CC(=O)NC(CC(C)C)C(=O)NC(CC(C)C)C(=O)N1CCOCC1)CC2=O (mixture of isomers) [Compound 174]
> 10	COc1ccc2c(c1)C(CC(=O)NCC(=O)NCC(=O)NCC(N)=O)CC2=O (stereo not drawn) [Compound 40]
> 10	COc1ccc2c(c1)C(CC(=O)NC(C(=O)NC(CC(C)C)C(N)=O)C(C)C)CC2=O (mixture of isomers) [Compound 30]
> 10	COc1ccc2c(c1)C(CC(=O)NC(CC(C)C)C(=O)NC(CC(C)C)C(N)=O)CC2=O (mixture of isomers) [Compound 6]

SMILES	IC50 [µg/mL]
COc1ccc2c(c1)C(CC(=O)N1CCCCC1)CC2=O (stereo not drawn) [Compound 67]	> 10
COc1ccc2c(c1)C(CC(=O)N1CCCC1CO)CC2=O (mixture of isomers) [Compound 164]	> 50
